The target in assay [1] is Human norepinephrine transporter (NET) (Homo sapiens, UniProt P23975). Description: Binding assay to human norepinephrine transporter (NET), [3H]-Nisoxetin. As to conditions: human NET enriched membranes, 5 nM [3H]-Nisoxetin; read-out: Ki (nM) NET Hum. The method, boiled down: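 NET-enriched membranes (5 μg) incubated with 5 nM [3H]-nisoxetin in 50 mM Tris-HCl, 120 mM NaCl, 5 mM KCl, pH 7.4, for 60 min at 4 °C. Separation by filtration on PEI-soaked GF/C, then scintillation counting.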

The target of assay [2] is Human α2δ-1 subunit of Cav2.2 calcium channel (Homo sapiens, UniProt P54289). Description: Binding assay to human α2δ-1 subunit of Cav2.2 calcium channel, [3H]-Gabapentin. To be noted: human α2δ-1 enriched membranes, 15 nM [3H]-Gabapentin; read-out: Ki (nM) alpha2delta Hum. The gist of the method:
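Human α2δ-1-enriched membranes incubated with 15 nM [3H]-gabapentin in 10 mM Hepes-KOH pH 7.4, 60 min at 27 °C; nonspecific binding defined with 10 μM pregabalin. Bound ligand separated by filtration on PEI-presoaked GF/C filters, washed with ice-cold 50 mM Tris-HCl pH 7.4, counted by scintillation.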

Ki data for 32 compounds are collected here from patent US20200207759A1, “NEW PROPANAMINE DERIVATIVES FOR TREATING PAIN AND PAIN RELATED CONDITIONS” (ESTEVE PHARMACEUTICALS, S.A., priority 2017, published 2020).

The structures appear in SMILES notation.

Chain of Human α2δ-1 subunit of Cav2.2 calcium channel (P54289 25-1103): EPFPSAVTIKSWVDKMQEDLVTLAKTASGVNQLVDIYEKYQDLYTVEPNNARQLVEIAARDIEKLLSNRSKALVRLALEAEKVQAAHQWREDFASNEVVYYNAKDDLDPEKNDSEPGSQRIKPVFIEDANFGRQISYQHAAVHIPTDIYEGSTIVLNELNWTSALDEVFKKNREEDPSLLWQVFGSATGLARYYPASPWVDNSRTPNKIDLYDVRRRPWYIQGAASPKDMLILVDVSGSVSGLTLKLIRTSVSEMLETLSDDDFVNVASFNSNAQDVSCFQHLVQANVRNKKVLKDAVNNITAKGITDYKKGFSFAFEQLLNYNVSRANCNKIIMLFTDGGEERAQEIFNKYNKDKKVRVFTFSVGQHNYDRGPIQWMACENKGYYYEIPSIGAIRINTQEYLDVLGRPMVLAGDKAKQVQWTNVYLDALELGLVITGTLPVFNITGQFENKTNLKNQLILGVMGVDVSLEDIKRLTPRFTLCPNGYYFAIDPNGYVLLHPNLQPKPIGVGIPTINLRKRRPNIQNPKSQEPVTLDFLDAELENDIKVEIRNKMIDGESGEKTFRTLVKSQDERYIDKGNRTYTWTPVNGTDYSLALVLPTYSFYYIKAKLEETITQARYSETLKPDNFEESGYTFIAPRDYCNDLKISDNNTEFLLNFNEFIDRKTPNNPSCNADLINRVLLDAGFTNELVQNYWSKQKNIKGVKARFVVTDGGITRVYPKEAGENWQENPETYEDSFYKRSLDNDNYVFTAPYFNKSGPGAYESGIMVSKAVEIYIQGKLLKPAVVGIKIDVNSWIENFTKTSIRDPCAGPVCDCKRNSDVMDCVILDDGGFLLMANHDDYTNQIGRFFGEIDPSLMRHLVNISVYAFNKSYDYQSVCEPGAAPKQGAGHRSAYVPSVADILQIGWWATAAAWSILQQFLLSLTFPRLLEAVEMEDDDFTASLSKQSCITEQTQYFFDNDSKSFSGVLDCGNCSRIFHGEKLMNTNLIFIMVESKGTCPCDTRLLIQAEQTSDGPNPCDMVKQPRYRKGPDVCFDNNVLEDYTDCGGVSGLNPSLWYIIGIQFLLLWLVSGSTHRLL
Chain of Human norepinephrine transporter (NET) (P23975 whole entry): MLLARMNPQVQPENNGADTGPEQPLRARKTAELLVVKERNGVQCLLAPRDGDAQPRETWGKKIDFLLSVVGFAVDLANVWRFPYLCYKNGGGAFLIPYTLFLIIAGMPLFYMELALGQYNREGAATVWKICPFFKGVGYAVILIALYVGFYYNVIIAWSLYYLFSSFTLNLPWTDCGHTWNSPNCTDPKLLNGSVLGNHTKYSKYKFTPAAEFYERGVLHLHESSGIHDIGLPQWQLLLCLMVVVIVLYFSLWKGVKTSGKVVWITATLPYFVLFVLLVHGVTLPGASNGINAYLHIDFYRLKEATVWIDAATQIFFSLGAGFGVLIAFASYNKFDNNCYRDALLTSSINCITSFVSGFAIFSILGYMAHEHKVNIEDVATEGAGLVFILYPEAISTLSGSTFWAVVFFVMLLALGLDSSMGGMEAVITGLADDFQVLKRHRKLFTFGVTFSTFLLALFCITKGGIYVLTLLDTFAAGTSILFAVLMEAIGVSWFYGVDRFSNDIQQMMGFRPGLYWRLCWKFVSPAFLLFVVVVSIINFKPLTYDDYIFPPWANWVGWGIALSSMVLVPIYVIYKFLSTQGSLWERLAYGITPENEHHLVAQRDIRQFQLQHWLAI

With `CNCC[C@@H](c1ccsc1)N1CC(C)(C)c2ncc(C)cc21` [Example 61, (S)-N-methyl-3-(thiophen-3-yl)-3-(3,3,6-trimethyl-2,3-dihydro-1H-pyrrolo[3,2-b]pyridin-1-yl)propan-1-amine], the Ki in assay [1] was > 1000 nM; in assay [2], 500 to 3000 nM.
For `CNCC[C@H](c1ccsc1)N1CCc2nc(C)ccc21` [Example 62, (R)—N-methyl-3-(5-methyl-2,3-dihydro-1H-pyrrolo[3,2-b]pyridin-1-yl)-3-(thiophen-3-yl)propan-1-amine], in that order: > 1000 nM and 500 to 3000 nM.
Regarding `CNCC[C@@H](c1ccsc1)N1CCc2nc(C)ccc21` [Example 63, (S)—N-methyl-3-(5-methyl-2,3-dihydro-1H-pyrrolo[3,2-b]pyridin-1-yl)-3-(thiophen-3-yl)propan-1-amine], the Ki in assay [1] was 500 to 1000 nM; in assay [2], 500 to 3000 nM.
For `CNCCC(c1cccs1)N1CC(C)(C)c2nc(C)ccc21` (stereo not shown) [Example 64, N-methyl-3-(thiophen-2-yl)-3-(3,3,5-trimethyl-2,3-dihydro-1H-pyrrolo[3,2-b]pyridin-1-yl)propan-1-amine], in that order: 100 to 500 nM and < 100 nM.
For `CNCCC(c1ccsc1)N1CC(C)(C)c2ncc(F)cc21` (stereo not shown) [Example 65, 3-(6-Fluoro-3,3-dimethyl-2,3-dihydro-1H-pyrrolo[3,2-b]pyridin-1-yl)-N-methyl-3-(thiophen-3-yl)propan-1-amine], in that order: > 1000 nM and < 100 nM.
For `CNCCC(c1cccs1)N1CC(C)(C)c2ncc(F)cc21` (stereo not shown) [Example 66, 3-(6-Fluoro-3,3-dimethyl-2,3-dihydro-1H-pyrrolo[3,2-b]pyridin-1-yl)-N-methyl-3-(thiophen-2-yl)propan-1-amine], in that order: > 1000 nM and 100 to 500 nM.
For `CNCCC(c1cccs1)N1CCc2c(F)cccc21` (stereo not shown) [Example 67, 3-(4-Fluoroindolin-1-yl)-N-methyl-3-(thiophen-2-yl)propan-1-amine], the values for the Ki in assay [1] and in assay [2] were < 100 nM and 500 to 3000 nM, respectively.
For `CNCCC(c1cccs1)N1CCc2c(F)cc(F)cc21` (stereo not shown) [Example 68, 3-(4,6-Difluoroindolin-1-yl)-N-methyl-3-(thiophen-2-yl)propan-1-amine] the same measures were < 100 nM and 500 to 3000 nM.
For `CNCCC(c1cccs1)N1CCc2c(OC)cccc21` (stereo not shown) [Example 69, 3-(4-Methoxyindolin-1-yl)-N-methyl-3-(thiophen-2-yl)propan-1-amine] the same measures were < 100 nM and ≥ 3000 nM.
For `CNCCC(c1ccsc1)N1CC(C)(C)c2nc(C)c(F)cc21` (stereo not shown) [Example 71, 3-(6-Fluoro-3,3,5-trimethyl-2,3-dihydro-1H-pyrrolo[3,2-b]pyridin-1-yl)-N-methyl-3-(thiophen-3-yl)propan-1-amine], the Ki is 100 to 500 nM in assay [1] and < 100 nM in assay [2].
For `CNCCC(c1cccs1)N1CCc2cc(F)ccc21` (stereo not shown) [Example 72, 3-(5-Fluoroindolin-1-yl)-N-methyl-3-(thiophen-2-yl)propan-1-amine], in that order: 100 to 500 nM and ≥ 3000 nM.
For `CNCCC(c1cccs1)N1CC(C)(C)c2ncc(Cl)cc21` (stereo not shown) [Example 73, 3-(6-Chloro-3,3-dimethyl-2,3-dihydro-1H-pyrrolo[3,2-b]pyridin-1-yl)-N-methyl-3-(thiophen-2-yl)propan-1-amine] the same measures were > 1000 nM and 100 to 500 nM.
For `CNCCC(c1ccsc1)N1CCc2cnccc21` (stereo not shown) [Example 74, 3-(2,3-Dihydro-1H-pyrrolo[3,2-c]pyridin-1-yl)-N-methyl-3-(thiophen-3-yl)propan-1-amine] the same measures were > 1000 nM and 500 to 3000 nM.
As for `CNCCC(c1cccs1)N1CC(C)(C)c2nc(C(F)(F)F)ccc21` (stereo not shown) [Example 75, 3-(3,3-Dimethyl-5-(trif1uoromethyl)-2,3-dihydro-1H-pyrrolo[3,2-b]pyridin-1-yl)-N-methyl-3-(thiophen-2-yl)propan-1-amine], the Ki was > 1000 nM in assay [1] and 100 to 500 nM in assay [2].
In the case of `CCc1cnc2c(c1)N([C@H](CCNC)c1ccsc1)CC2` [Example 76, (R)-3-(6-Ethyl-2,3-dihydro-1H-pyrrolo[3,2-b]pyridin-1-yl)-N-methyl-3-(thiophen-3-yl)propan-1-amine], the Ki in assay [1] and in assay [2] was 100 to 500 nM throughout.
For the compound `CCc1cnc2c(c1)N([C@@H](CCNC)c1ccsc1)CC2` [Example 77, (S)-3-(6-Ethyl-2,3-dihydro-1H-pyrrolo[3,2-b]pyridin-1-yl)-N-methyl-3-(thiophen-3-yl)propan-1-amine], the Ki was in the range of 100 to 500 nM in assay [1] and 500 to 3000 nM in assay [2].
With `CNCC[C@@H](c1cccc(F)c1)N1CCc2ncccc21` [Example 82, (S)-3-(2,3-Dihydro-1H-pyrrolo[3,2-b]pyridin-1-yl)-3-(3-fluorophenyl)-N-methylpropan-1-amine], the Ki in assay [1] was 500 to 1000 nM; in assay [2], 500 to 3000 nM.
For `CNCC[C@H](c1cccc(F)c1)N1CCc2ncccc21` [Example 83, (R)-3-(2,3-Dihydro-1H-pyrrolo[3,2-b]pyridin-1-yl)-3-(3-fluorophenyl)-N-methylpropan-1-amine], in that order: 100 to 500 nM and ≥ 3000 nM.
For `CNCC[C@@H](c1cccc(F)c1)N1CC(C)(C)c2ncccc21` [Example 84, (S)-3-(3,3-Dimethyl-2,3-dihydro-1H-pyrrolo[3,2-b]pyridin-1-yl)-3-(3-fluorophenyl)-N-methylpropan-1-amine], in that order: 100 to 500 nM and ≥ 3000 nM.
With `CNCC[C@H](c1cccc(F)c1)N1CC(C)(C)c2ncccc21` [Example 85, (R)-3-(3,3-Dimethyl-2,3-dihydro-1H-pyrrolo[3,2-b]pyridin-1-yl)-3-(3-fluorophenyl)-N-methylpropan-1-amine], the Ki was > 1000 nM in assay [1] and ≥ 3000 nM in assay [2].
For `CNCC[C@H](c1ccsc1)N1CC(C)(C)c2ncc(F)cc21` [Example 87, (R)-3-(6-Fluoro-3,3-dimethyl-2,3-dihydro-1H-pyrrolo[3,2-b]pyridin-1-yl)-N-methyl-3-(thiophen-3-yl)propan-1-amine], in that order: > 1000 nM and 100 to 500 nM.
On to `CNCC[C@@H](c1ccsc1)N1CC(C)(C)c2ncc(F)cc21` [Example 88, (S)-3-(6-Fluoro-3,3-dimethyl-2,3-dihydro-1H-pyrrolo[3,2-b]pyridin-1-yl)-N-methyl-3-(thiophen-3-yl)propan-1-amine], for which the Ki in assay [1] was 500 to 1000 nM; in assay [2] it was 100 to 500 nM.
For `CNCC[C@@H](c1ccsc1)N1CC(C)(C)c2nc(C)c(F)cc21` [Example 89, (S)-3-(6-Fluoro-3,3,5-trimethyl-2,3-dihydro-1H-pyrrolo[3,2-b]pyridin-1-yl)-N-methyl-3-(thiophen-3-yl)propan-1-amine], in that order: 100 to 500 nM and 100 to 500 nM.
Turning to `CNCC[C@H](c1ccsc1)N1CC(C)(C)c2nc(C)c(F)cc21` [Example 90, (R)-3-(6-Fluoro-3,3,5-trimethyl-2,3-dihydro-1H-pyrrolo[3,2-b]pyridin-1-yl)-N-methyl-3-(thiophen-3-yl)propan-1-amine], the values for the Ki in assay [1] and in assay [2] were > 1000 nM and < 100 nM, respectively.
For `CCNCC[C@H](c1ccsc1)N1CCc2ncc(F)cc21` [Example 91, (R)-N-ethyl-3-(6-fluoro-2,3-dihydro-1H-pyrrolo[3,2-b]pyridin-1-yl)-3-(thiophen-3-yl)propan-1-amine], in that order: > 1000 nM and 500 to 3000 nM.
Regarding `CNCCC(c1cccs1)N1CC(C)(C)c2ccc(C#N)cc21` (stereo not shown) [Example 92, 3,3-Dimethyl-1-(3-(methylamino)-1-(thiophen-2-yl)propyl)indoline-6-carbonitrile], the Ki was > 1000 nM in assay [1] and 100 to 500 nM in assay [2].
For `CNCCC(c1cccs1)N1CC(C)(C)c2ccccc21` (stereo not shown) [Example 93, 3-(3,3-Dimethylindolin-1-yl)-N-methyl-3-(thiophen-2-yl)propan-1-amine], in that order: < 100 nM and 500 to 3000 nM.
For `CNCCC(c1cccs1)N1CCc2ccc(C#N)cc21` (stereo not shown) [Example 94, 1-(3-(Methylamino)-1-(thiophen-2-yl)propyl)indoline-6-carbonitrile], in that order: > 1000 nM and 100 to 500 nM.
For `CNCCC(c1cccs1)N1CCc2c(C#N)cccc21` (stereo not shown) [Example 95, 1-(3-(Methylamino)-1-(thiophen-2-yl)propyl)indoline-4-carbonitrile] the same measures were < 100 nM and 100 to 500 nM.
With `CNCCC(c1cccs1)N1CCc2cc(C#N)ccc21` (stereo not shown) [Example 96, 1-(3-(Methylamino)-1-(thiophen-2-yl)propyl)indoline-5-carbonitrile], the Ki is 500 to 1000 nM in assay [1] and 500 to 3000 nM in assay [2].
For `CNCCC(c1cccs1)N1CC(C)(C)c2ncc(C#N)cc21` (stereo not shown) [Example 97, 3,3-Dimethyl-1-(3-(methylamino)-1-(thiophen-2-yl)propyl)-2,3-dihydro-1H-pyrrolo[3,2-b]pyridine-6-carbonitrile], in that order: > 1000 nM and < 100 nM.
For `CNCCC(c1cccs1)N1CC(C)(C)c2nc(OC)ccc21` (stereo not shown) [Example 99, 3-(5-Methoxy-3,3-dimethyl-2,3-dihydro-1H-pyrrolo[3,2-b]pyridin-1-yl)-N-methyl-3-(thiophen-2-yl)propan-1-amine] the same measures were 100 to 500 nM and 100 to 500 nM.
